One test addresses T1, RET (Homo sapiens, UniProt P07949).
T1 construct: polyhistidine (N)
T1 sequence (P07949 658-1114 limits assumed): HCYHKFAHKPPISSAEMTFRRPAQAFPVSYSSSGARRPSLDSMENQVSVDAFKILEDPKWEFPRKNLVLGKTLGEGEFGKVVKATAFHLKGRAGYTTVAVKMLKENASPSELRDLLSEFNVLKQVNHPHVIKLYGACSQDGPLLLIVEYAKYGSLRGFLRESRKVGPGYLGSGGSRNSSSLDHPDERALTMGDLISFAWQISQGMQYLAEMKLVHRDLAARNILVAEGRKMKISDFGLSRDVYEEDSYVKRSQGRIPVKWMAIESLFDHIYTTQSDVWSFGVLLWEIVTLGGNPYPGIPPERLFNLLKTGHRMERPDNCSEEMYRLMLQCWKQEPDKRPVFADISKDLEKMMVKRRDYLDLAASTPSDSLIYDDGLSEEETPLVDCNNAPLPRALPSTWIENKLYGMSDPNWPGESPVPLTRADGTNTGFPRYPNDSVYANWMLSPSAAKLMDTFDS
Kind of test: RET kinase screening assay (33P-ATP FlashPlate).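 Also: biotinylated peptide substrate captured on streptavidin FlashPlate, 33P phosphate transfer read by scintillation counting, 1% DMSO, lower incorporation means inhibition, percent relative to per-plate maximum and minimum signals.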 Type of test: biochemical. The following applies: human RET kinase domain; 10 μM ATP; 1 hr at 30° C.

The target of a further test is T2, VEGF-R2 (Rattus norvegicus, UniProt O08775).
T2 construct: polyhistidine (N)
The experiment in a line: VEGF-R2 kinase screening assay (33P-ATP FlashPlate).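 Also: Read-out is ³³P incorporation from ³³P-γ-ATP into biotinylated peptide substrate captured on streptavidin FlashPlate, counted by scintillation, 1% DMSO final, inhibition scaled between per-plate maximum and minimum signals.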 The following applies: rat VEGF-R2 kinase domain; 10 μM ATP; 1 hr at 30° C. Format: biochemical.

In another test the test system is HCT-116 colon carcinoma. Kind of test: Cell Proliferation Inhibition Assay (14C-thymidine incorporation), HCT-116.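 Also: proliferation measured as methyl 14C-thymidine uptake into new DNA, counted in 96-well scintillating microplates, compared with DMSO-only control wells.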 Format: cell-based. The following applies: Homo sapiens.
In the next test the test system is A375 malignant melanoma. Kind of test: Cell Proliferation Inhibition Assay (14C-thymidine incorporation), A375.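 Also: proliferation measured by radiolabelled thymidine uptake into new DNA, counted in scintillating 96-well plates, compound-treated wells compared with DMSO-only control wells.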 Type of test: cell-based. The following applies: Homo sapiens, A-375, A375 cells. In general terms: Uptake of a labelled nucleoside into DNA is a usual measure of proliferation.
The target of another test is T3, HER2 (Homo sapiens, UniProt P04626).
T3 construct: GST (Glutathione-S-Transferase) (N); HIS6 (N); thrombin cleavage site (N); purchased Proqinase, Freiburg, Germany
Kind of test: HER2 kinase screening assay (33P-ATP FlashPlate).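 Also: Biotin-poly(GT) 4:1 peptide captured on streptavidin FlashPlate, 33P transfer from γ-ATP read by scintillation counting, lower incorporation means inhibition, 1% DMSO final, 100 µL reaction.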 Format: biochemical. The following applies: GST-HIS6 HER-2 aa 679 to 1255; 10 μM ATP; 1 hr at 30° C.

Another test has as its target T4, Aurora-A (Mus musculus, UniProt P97477).
T4 construct: polyhistidine (N)
T4 sequence (P97477 1-395): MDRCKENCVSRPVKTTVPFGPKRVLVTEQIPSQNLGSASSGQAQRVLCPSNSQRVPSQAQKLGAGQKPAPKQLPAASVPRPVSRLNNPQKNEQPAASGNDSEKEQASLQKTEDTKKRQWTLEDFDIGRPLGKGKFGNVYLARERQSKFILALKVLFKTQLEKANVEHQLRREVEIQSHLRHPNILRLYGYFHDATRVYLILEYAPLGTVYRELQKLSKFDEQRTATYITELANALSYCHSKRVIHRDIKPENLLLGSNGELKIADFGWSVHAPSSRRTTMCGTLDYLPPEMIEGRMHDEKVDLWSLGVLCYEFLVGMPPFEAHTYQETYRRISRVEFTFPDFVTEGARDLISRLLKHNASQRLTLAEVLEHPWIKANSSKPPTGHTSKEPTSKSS
Kind of test: Aurora-A kinase screening assay (33P-ATP FlashPlate).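 Also: His-tagged mouse Aurora-A phosphorylating a biotinylated peptide captured on streptavidin plates, read as 33P uptake by scintillation counting, 1% DMSO, inhibition scaled between per-plate maximum and minimum signals.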 Format: biochemical. The following applies: 10 μM ATP, 1 hr at 30° C.

Another test has as its target T5, CDK1 (Homo sapiens, UniProt P06493).
T5 construct: purchased New England Biolabs, Beverly, Mass; 6020; host or cells: insect cells
The experiment in a line: CDK-1 kinase screening assay (33P-ATP FlashPlate). Type of test: biochemical. The following applies: human CDK1 with cyclin B; 10 μM ATP; 1 hr at 30° C.

In test [1] the test system is HeLa cervical adenocarcinoma. The experiment in a line: Cell Proliferation Inhibition Assay (14C-thymidine incorporation), HeLa.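 Also: test compound in DMSO added to cells seeded in scintillating 96-well plates, DMSO-only wells as control, uptake of methyl 14C-thymidine into new DNA counted.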 Type of test: cell-based. The following applies: Homo sapiens, HeLa cells.

For twelve compounds, IC50 results are on record in patent publication US7541367B2, “3-benzoimidazolyl-pyrazolopyridines useful in treating kinase disorders” (Janssen Pharmaceutica, N.V., priority 2005, dated 2009).

T2 sequence (O08775 786-1343): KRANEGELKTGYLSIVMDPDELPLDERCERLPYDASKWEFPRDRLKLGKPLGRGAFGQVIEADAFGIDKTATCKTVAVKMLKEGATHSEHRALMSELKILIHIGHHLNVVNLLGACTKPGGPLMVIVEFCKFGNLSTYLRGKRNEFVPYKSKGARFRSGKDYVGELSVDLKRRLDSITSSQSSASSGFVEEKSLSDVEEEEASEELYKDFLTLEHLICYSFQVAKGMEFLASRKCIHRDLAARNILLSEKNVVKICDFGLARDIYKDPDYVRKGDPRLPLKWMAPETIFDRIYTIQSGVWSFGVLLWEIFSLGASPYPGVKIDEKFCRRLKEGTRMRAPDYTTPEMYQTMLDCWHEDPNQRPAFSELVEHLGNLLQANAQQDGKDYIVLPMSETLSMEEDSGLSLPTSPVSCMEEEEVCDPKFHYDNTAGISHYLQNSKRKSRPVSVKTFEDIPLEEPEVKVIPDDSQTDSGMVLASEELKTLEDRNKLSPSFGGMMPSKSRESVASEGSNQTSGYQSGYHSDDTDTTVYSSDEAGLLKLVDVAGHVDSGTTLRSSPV
T5 sequence (P06493 whole entry): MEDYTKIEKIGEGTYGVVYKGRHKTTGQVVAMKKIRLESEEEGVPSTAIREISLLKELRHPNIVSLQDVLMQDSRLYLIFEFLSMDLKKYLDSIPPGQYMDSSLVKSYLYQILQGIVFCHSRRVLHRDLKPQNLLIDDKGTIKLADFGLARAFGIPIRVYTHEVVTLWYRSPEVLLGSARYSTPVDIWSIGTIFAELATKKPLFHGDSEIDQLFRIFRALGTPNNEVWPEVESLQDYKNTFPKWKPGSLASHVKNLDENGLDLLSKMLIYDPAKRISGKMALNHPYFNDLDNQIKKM
T5 sequence (P14635 whole entry partner): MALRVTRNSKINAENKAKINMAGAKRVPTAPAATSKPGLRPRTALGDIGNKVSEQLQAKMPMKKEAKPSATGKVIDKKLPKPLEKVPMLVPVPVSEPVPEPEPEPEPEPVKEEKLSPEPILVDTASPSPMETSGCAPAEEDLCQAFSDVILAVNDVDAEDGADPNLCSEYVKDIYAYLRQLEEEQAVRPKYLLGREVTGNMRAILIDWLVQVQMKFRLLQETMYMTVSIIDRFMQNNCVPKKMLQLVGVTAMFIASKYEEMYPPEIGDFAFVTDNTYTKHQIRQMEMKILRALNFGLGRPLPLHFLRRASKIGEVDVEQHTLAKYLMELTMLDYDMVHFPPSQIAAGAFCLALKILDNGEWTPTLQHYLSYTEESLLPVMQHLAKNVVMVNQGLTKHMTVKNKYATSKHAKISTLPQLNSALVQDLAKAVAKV
T3 sequence (P04626 679-1255): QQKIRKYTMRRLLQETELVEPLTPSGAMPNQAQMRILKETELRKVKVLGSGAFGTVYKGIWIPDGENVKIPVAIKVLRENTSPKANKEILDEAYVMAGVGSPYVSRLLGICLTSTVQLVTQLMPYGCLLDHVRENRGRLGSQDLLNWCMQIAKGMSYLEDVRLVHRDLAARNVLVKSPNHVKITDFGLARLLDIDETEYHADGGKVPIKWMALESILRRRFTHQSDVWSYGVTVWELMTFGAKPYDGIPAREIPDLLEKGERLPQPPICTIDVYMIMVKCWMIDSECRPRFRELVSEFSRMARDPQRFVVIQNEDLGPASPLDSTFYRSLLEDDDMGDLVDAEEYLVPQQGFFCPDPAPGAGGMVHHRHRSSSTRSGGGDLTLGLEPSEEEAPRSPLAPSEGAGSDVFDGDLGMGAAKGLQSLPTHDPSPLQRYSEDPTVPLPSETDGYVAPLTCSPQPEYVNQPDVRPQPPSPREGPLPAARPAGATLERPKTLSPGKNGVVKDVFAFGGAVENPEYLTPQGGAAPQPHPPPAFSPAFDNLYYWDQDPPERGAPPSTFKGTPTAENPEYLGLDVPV

On to `O=C(c1cccc2[nH]c(-c3n[nH]c4ncc(-c5cncc6ccccc56)cc34)nc12)N1CCCC1` [Cpd 21, [2-(5-isoquinolin-4-yl-1H-pyrazolo[3,4-b]pyridin-3-yl)-1H-benzoimidazole-4-yl]-pyrrolidin-1-yl-methanone], for which the concentration for half-maximal inhibition (IC50) (usually the concentration that inhibits the measured activity by half) against RET is > 10 µM; at VEGF-R2, 2790 nM; in the test with HCT-116 colon carcinoma (HCT-116, HCT-116 cells) it was 899 nM; in the test on A375 malignant melanoma, 472 nM; against HER2 it was > 10 µM; against Aurora-A, 4830 nM. Besides, the figures for the half-inhibitory concentration (IC50) (against CDK1; in test [1] (HeLa)) were 162 nM and 804 nM, respectively.
Regarding `COCc1cccc2[nH]c(-c3n[nH]c4ncc(-c5ccc(S(N)(=O)=O)cc5)cc34)nc12` [Cpd 36, 4-[3-(4-methoxymethyl-1H-benzoimidazol-2-yl)-1H-pyrazolo[3,4-b]pyridin-5-yl]benzenesulfonamide], the IC50 against RET is > 10 µM; against VEGF-R2, 436 nM; in the test on HCT-116 colon carcinoma (HCT-116, HCT-116 cells) it was 43.4 nM; in the test with A375 malignant melanoma, 212 nM; at HER2 it was > 100 µM; against Aurora-A, > 1000 nM. In addition, the results for the half-maximal inhibitory concentration (IC50) (at CDK1; in test [1] (HeLa)) were 546 nM and 1430 nM, respectively.
Consider `c1cncc(-c2cnc3[nH]nc(-c4nc5cc6c(cc5[nH]4)OCO6)c3c2)c1` [Cpd 99, 6-(5-pyridin-3-yl-1H-pyrazolo[3,4-b]pyridin-3-yl)-5H-[1,3]dioxolo[4′,5′:4,5]benzo[1,2-d]imidazole], for which the IC50 at RET is > 100 µM; against VEGF-R2 it was ~1000 nM; in the test with HCT-116 colon carcinoma (HCT-116, HCT-116 cells) it was 271 nM; in the test with A375 malignant melanoma, 489 nM; at HER2, > 100 µM; against Aurora-A, ~10000 nM. Further, the results for the 50% inhibitory concentration (IC50) (at CDK1; in test [1] (HeLa)) were 3.3 nM and 471 nM, respectively.
Consider `CC(C)OCc1cccc2[nH]c(-c3n[nH]c4ncc(-c5cncc6ccccc56)cc34)nc12` [Cpd 32, 4-[3-(4-isopropoxymethyl-1H-benzoimidazol-2-yl)-1H-pyrazolo[3,4-b]pyridin-5-yl]-isoquinoline], for which the IC50 at RET was > 100 µM; against VEGF-R2, ~100 nM; with HCT-116 colon carcinoma (HCT-116 cells), 2880 nM; in the test on A375 malignant melanoma, 905 nM; on HER2, > 100 µM; at Aurora-A it was > 1000 nM. Also, the IC50 came to 98.7 nM against CDK1 and 2140 nM in test [1].
Take `COCc1cccc2[nH]c(-c3n[nH]c4ncc(-c5ccc(N6CCN(C(=O)OC(C)(C)C)CC6)nc5)cc34)nc12` [Cpd 67, 4-{5-[3-(4-methoxymethyl-1H-benzoimidazol-2-yl)-1H-pyrazolo[3,4-b]pyridin-5-yl]-pyridin-2-yl}-piperazine-1-carboxylic acid tert-butyl ester]: the IC50 against RET was > 100 µM; at VEGF-R2, > 10000 nM; with HCT-116 colon carcinoma (HCT-116, HCT-116 cells), 24.5 nM; with A375 malignant melanoma it was 10.9 nM; on HER2, > 100 µM; against Aurora-A, > 100000 nM. Further, the IC50 is > 10000 nM on CDK1 and 1980 nM in test [1] (HeLa).
`COCc1cccc2[nH]c(-c3n[nH]c4ncc(-c5cn(S(=O)(=O)c6ccccc6)c6ccccc56)cc34)nc12` [Cpd 38, 5-(1-benzenesulfonyl-1H-indol-3-yl)-3-(4-methoxymethyl-1H-benzoimidazol-2-yl)-1H-pyrazolo[3,4-b]pyridine]: the IC50 at RET is > 100 µM; on VEGF-R2, > 1000 nM; with HCT-116 colon carcinoma (HCT-116, HCT-116 cells), 39.4 nM; in the test on A375 malignant melanoma, 56.8 nM; on HER2, > 100 µM; against Aurora-A, ~100000 nM. Further, the IC50 was > 10000 nM against CDK1 and 1900 nM in test [1] (HeLa).
As to `O=C(NC1CCC(O)CC1)c1cccc2[nH]c(-c3n[nH]c4ncc(-c5cncc6ccccc56)cc34)nc12` (stereo not drawn) [Cpd 29, 2-(5-isoquinolin-4-yl-1H-pyrazolo[3,4-b]pyridin-3-yl)-1H-benzoimidazole-4-carboxylic acid (4-hydroxy-cyclohexyl)-amide], the half-inhibitory concentration (IC50) is ~1 µM on RET; 232 nM at VEGF-R2; 255 nM in the test with HCT-116 colon carcinoma (HCT-116, HCT-116 cells); 69.7 nM in the test with A375 malignant melanoma; > 100 µM at HER2; ~1000 nM against Aurora-A. The half-maximal inhibitory concentration (IC50) turned out to be 11.6 nM on CDK1 and 205 nM in test [1] (HeLa).
For `c1ccc2c(-c3cnc4[nH]nc(-c5nc6c(COCCN7CCOCC7)cccc6[nH]5)c4c3)cncc2c1` [Cpd 15, 4-{3-[4-(2-morpholin-4-yl-ethoxymethyl)-1H-benzoimidazol-2-yl]-1H-pyrazolo[3,4-b]pyridin-5-yl}-isoquinoline], the 50% inhibitory concentration (IC50) is 0.929 µM on RET; ~1000 nM on VEGF-R2; 5820 nM with HCT-116 colon carcinoma (HCT-116, HCT-116 cells); 7610 nM with A375 malignant melanoma; ~100 µM against HER2; 2270 nM against Aurora-A. In addition, the half-maximal inhibitory concentration (IC50) at CDK1 stood at 33 nM; in test [1] (HeLa), 8520 nM.
Take `CCN(CC)Cc1cccc2[nH]c(-c3n[nH]c4ncc(Br)cc34)nc12` [Cpd 6, [2-(5-bromo-1H-pyrazolo[3,4-b]pyridin-3-yl)-1H-benzoimidazol-4-ylmethyl]-diethyl-amine]: the IC50 was > 10 µM on RET; 952 nM on VEGF-R2; 259 nM with HCT-116 colon carcinoma (HCT-116, HCT-116 cells); 255 nM in the test on A375 malignant melanoma; 0.0894 µM against HER2; 975 nM against Aurora-A. Also, the IC50 against CDK1 stood at 77.6 nM; in test [1] (HeLa), 354 nM.
For the compound `CNCc1cncc(-c2cnc3[nH]nc(-c4nc5ccc(C#N)cc5[nH]4)c3c2)c1` [Cpd 105, 2-[5-(5-methylaminomethyl-pyridin-3-yl)-1H-pyrazolo[3,4-b]pyridin-3-yl]-3H-benzoimidazole-5-carbonitrile], the IC50 is > 0.01 µM at RET; > 10 nM against VEGF-R2; 685 nM in the test with HCT-116 colon carcinoma (HCT-116, HCT-116 cells); 526 nM in the test on A375 malignant melanoma; > 10 µM against HER2; > 1000 nM against Aurora-A. Also, the IC50 against CDK1 was found to be 1.7 nM; in test [1] (HeLa), 120 nM.
As to `O=C(NC1CCCC1)c1cccc2[nH]c(-c3n[nH]c4ncc(-c5cncc6ccccc56)cc34)nc12` [Cpd 27, 2-(5-isoquinolin-4-yl-1H-pyrazolo[3,4-b]pyridin-3-yl)-1H-benzoimidazole-4-carboxylic acid cyclopentylamide], the half-maximal inhibitory concentration (IC50) on RET was > 1 µM; against VEGF-R2 it was 1040 nM; in the test on HCT-116 colon carcinoma (HCT-116, HCT-116 cells), 78.7 nM; with A375 malignant melanoma it was 75.2 nM; against HER2, > 10 µM; at Aurora-A it was > 1000 nM. For the same compound, the 50% inhibitory concentration (IC50) against CDK1 was found to be 31.7 nM; in test [1] (HeLa) it was 163 nM.
On to `COCc1cccc2[nH]c(-c3n[nH]c4ncc(-c5cncc(CNC(C)(C)C)c5)cc34)nc12` [Cpd 53, tert-butyl-{5-[3-(4-methoxymethyl-1H-benzoimidazol-2-yl)-1H-pyrazolo[3,4-b]pyridin-5-yl]-pyridin-3-ylmethyl}-amine], for which the IC50 was > 1 µM against RET; 37 nM at VEGF-R2; 391 nM with HCT-116 colon carcinoma (HCT-116, HCT-116 cells); 328 nM in the test with A375 malignant melanoma; > 10 µM at HER2; 1520 nM at Aurora-A. Besides, the half-inhibitory concentration (IC50) on CDK1 is 104 nM; in test [1] (HeLa), 709 nM.
